Source: US20150212068A1, “Cholyl-L-Lysyl-Fluorescein Assay” (Novassay SA, priority 2012, published 2015)

Legend:
[1] = Stability of CLF spiked directly in human plasma at room temperature and 4° C. (Test 3), HPLC-MS/MS; format: in vitro ADME; settings: for CLF concentration: human plasma spiked 100 ng/ml, mean ± SEM (n = 2); for CLF remaining: human plasma, vs To; for percentage of compound remaining (by comparing with content at To), lowest over incubation: plasma, up to 24 h
Experimental: Test 3: […] The final concentration of CLF was of 100 ng/ml. Two aliquots of 200 μl of plasma spiked with CLF were taken (To) and the remaining solution was divided in 2 equal fractions. One fraction was incubated at room temperature and the second one was incubated at 4° C. Two aliquots of 200 μl were taken from both fractions after 30 min, 120 min and 24 h of incubation. Samples were stored at −70° C. until further analysis. […] Thus, a stock solution of IS at 100 μg/ml in acetonitrile was 50-fold diluted in acetonitrile in order to obtain a final concentration of 2 μg/ml. Then, 200 μl of this solution were added to each plasma sample in order to precipitate the proteins. Samples were vortexed/mixed and centrifuged 5 min at 20,000 g (4° C.). After centrifugation, the clear supernatant (around 250 μl) was transferred into 1.2 ml HPLC glass vials and sealed. Samples were placed into the refrigerated autosampler and 20 μl were injected into the HPLC-MS/MS system. Test samples were injected twice. […] The injected volume of sample was 20 μl and the “full loop” mode was applied. The temperature of the analytical column was kept at 30° C. CLF and its IS were separated on an Acclaim 120 C18 column (5 μm, 2.1×100 mm, Dionex) by elution with a linear gradient of acetonitrile in water as described in Table 6. An ion trap mass spectrometer equipped with an ESI interface was operated in the positive ionization mode. For each compound, the most abundant ion formed in MS was selected for MS/MS fragmentations. In order to increase the sensitivity and the specificity of the method, the MRM mode was selected. The most specific daughter ions formed in MS/MS were used for quantification.

[2] = Storage stability of CLF in human plasma at −70° C. over 4 weeks (Test 4), HPLC-MS/MS; format: in vitro ADME; settings: for CLF remaining / CLF concentration: (D) storage in plasma at −70° C. per title (section head prints 37° C.); for CLF remaining: vs To; for CLF concentration: 100 ng/ml, mean ± SEM (n = 2)
Experimental: A working solution of CLF was prepared at 10 μg/ml by diluting the compound in methanol (100%).
At To and 4 weeks, 72 hours and 24 hours before To, 4 μl of the working solution of CLF were added to 400 μl of human plasma. The final concentration of CLF was of 100 ng/ml. Samples were divided in 2 equal fractions of 200 μl and stored at −70° C. until further analysis.
An internal standard (IS), 5-([4,6-Dichlorotriazin-2-yl]amino)fluorescein hydrochloride, was added to each plasma sample (calibrators, QC, zero and test samples) in order to monitor the extraction. Thus, a stock solution of IS at 100 μg/ml in acetonitrile was 50-fold diluted in acetonitrile in order to obtain a final concentration of 2 μg/ml. Then, 200 μl of this solution were added to each plasma sample in order to precipitate the proteins. Samples were vortexed/mixed and centrifuged 5 min at 20,000 g (4° C.). After centrifugation, the clear supernatant (around 250 μl) was transferred into 1.2 ml HPLC glass vials and sealed. Samples were placed into the refrigerated autosampler and 20 μl were injected into the HPLC-MS/MS system. Test samples were injected twice.
HPLC separation was operated with a mixture of water and acetonitrile containing 0.1% of formic acid and the reversed phase mode was selected. The injected volume of sample was 20 μl and the “full loop” mode was applied. The temperature of the analytical column was kept at 30° C.
CLF and its IS were separated on an Acclaim 120 C18 column (5 μm, 2.1×100 mm, Dionex) by elution with a linear gradient of acetonitrile in water as described in Table 6.
An ion trap mass spectrometer equipped with an ESI interface was operated in the positive ionization mode. For each compound, the most abundant ion formed in MS was selected for MS/MS fragmentations. In order to increase the sensitivity and the specificity of the method, the MRM mode was selected. The most specific daughter ions formed in MS/MS were used for quantification.

[3] = room temperature (25 ± 2° C.), 0.0 hours
[4] = room temperature (25 ± 2° C.), 0.5 hours
[5] = room temperature (25 ± 2° C.), 2.0 hours
[6] = room temperature (25 ± 2° C.), 24.0 hours

## CC(CCC(=O)NC(CCCCNC(=S)Nc1ccc(-c2c3ccc(=O)cc-3oc3cc(O)ccc23)c(C(=O)O)c1)C(=O)O)C1CCC2C3C(O)CC4CC(O)CCC4(C)C3CC(O)C12C [CLF, Cholyl-L-Lysyl-Fluorescein]
[1]; 4° C. and room temperature, 24 h
  CLF stability directly in plasma: stable for 24 h
[1]; 4° C., 0.0 hours
  CLF concentration: 101.9 ± 4.6 ng/mL
  CLF remaining: 100.0%
[1]; 4° C., 0.5 hours
  CLF concentration: 101.4 ± 3.5 ng/mL
  CLF remaining: 99.5%
[1]; 4° C., 2.0 hours
  CLF concentration: 89.9 ± 3.4 ng/mL
  CLF remaining: 88.2%
[1]; 4° C., 24.0 hours
  CLF concentration: 94.5 ± 3.6 ng/mL
  CLF remaining: 92.7%
[1]; [3]
  CLF concentration: 101.9 ± 4.6 ng/mL
  CLF remaining: 100.0%
[1]; [4]
  CLF concentration: 85.3 ± 0.0 ng/mL
  CLF remaining: 83.7%
[1]; [5]
  CLF concentration: 93.2 ± 0.0 ng/mL
  CLF remaining: 91.4%
[1]; [6]
  CLF concentration: 100.7 ± 3.3 ng/mL
  CLF remaining: 98.8%
[1]; plasma spiked with 100 ng/ml, 4° C. and room temperature, 0-24 h
  plasmatic concentrations measured: 85.3 to 101.9 ng/mL
[1]; 4° C.
  percentage of compound remaining (by comparing with content at To), lowest over incubation: ≥ 88.2%
[1]; room temperature
  percentage of compound remaining (by comparing with content at To), lowest over incubation: at least 83.7%
[2]; 0.0 days
  CLF remaining: 100.0%
  CLF concentration: 101.2 ± 5.8 ng/mL
[2]; 1.0 days
  CLF concentration: 105.5 ± 2.5 ng/mL
  CLF remaining: 104.3%
[2]; 3.0 days
  CLF concentration: 104.7 ± 6.9 ng/mL
  CLF remaining: 103.5%
[2]; 28.0 days
  CLF concentration: 96.2 ± 1.4 ng/mL
[2]; 28.0 days (4 weeks)
  CLF remaining: 95.0%
[2]; plasma spiked with 100 ng/ml, stored at −70° C., 0-4 weeks
  plasmatic concentrations measured: 96.2 to 105.5 ng/mL
[2]; up to 4 weeks at −70° C.
  CLF stability in plasma on storage: stable
[2]; −70° C.
  time over which CLF stability in human plasma was confirmed: at least 4 weeks
